# From ChEMBL document CHEMBL1146844, “Probing a water channel near the A-ring of receptor-bound 1 alpha,25-dihydroxyvitamin D3 with selected 2 alpha-substituted analogues” (J Med Chem, 2006)
# Calls of active or inactive are those of the source. The calls are words filed in the database; no cut-off is given here.
# Tested on: HL-60
# Assay: Induction of HL60 cell differentiation in correlation with affinity to human VDR
# Format: functional, cell-based
row,Compound,Activity
1,C=C1/C(=C\C=C2/CCC[C@]3(C)[C@@H]([C@H](C)CCCC(C)(C)O)CC[C@@H]23)C[C@@H](O)[C@H](C)[C@@H]1O,Active
2,C=C1/C(=C\C=C2/CCC[C@]3(C)[C@@H]([C@H](C)CCCC(C)(C)O)CC[C@@H]23)C[C@@H](O)[C@H](CCCO)[C@@H]1O,Active
3,C=C1/C(=C\C=C2/CCC[C@]3(C)[C@@H]([C@H](C)CCCC(C)(C)O)CC[C@@H]23)C[C@@H](O)[C@H](OCCCO)[C@@H]1O,inactive
4,C=C1/C(=C\C=C2/CCC[C@]3(C)[C@@H]([C@H](C)CCCC(C)(C)O)CC[C@@H]23)C[C@H](O)[C@@H](OCCC)[C@H]1O,inactive
5,C=C1/C(=C\C=C2/CCC[C@]3(C)[C@@H]([C@H](C)CCCC(C)(C)O)CC[C@@H]23)C[C@@H](O)[C@H](CCC)[C@@H]1O,Active
